Test results taken from patent publication US8338582B2, “Anti-HIV immunogens and methods for inducing an immune response” (Fundacao de Amparo a Pesquisa do Estado de Sao Paulo, priority 2005, dated 2012).
Where two headings read alike, the source gives them in different places.

System: peripheral blood mononuclear cells from HIV-1 seronegative individuals
Settings: for IFN-γ spots/10^6 PBMC, Average (AV): average of 8 seronegative individuals; for IFN-γ spots/10^6 PBMC, Average (AV) / IFN-γ spots/10^6 PBMC: peptide 5 μM; for IFN-γ spots/10^6 PBMC, AV + 3SD: average plus 3 standard deviations, 8 seronegative individuals
Procedure: Step d) is achieved by synthesizing the peptides representing the epitopes of the present invention, followed by ELISPOT assay to detect IFN-γ-producing cells. For the purposes of the present invention, the positivity cutoff value used is ≧30 SFC IFN-γ/10^6 PBMC, calculated based on the levels of responses of HIV-1 seronegative patients
Synthetic peptide stocks were diluted to 25 mg/mL in dimethylsulphoxide, followed by ELISPOT assays for detection of IFN-γ-producing cells in response to the epitopes using peripheral blood mononuclear cells (PBMC) in 34 HIV-1+ patients of several clinical groups, long-term nonprogressors (LTNP), reconsituted, partial controllers, and progressors. Each epitope was tested in a concentration of 5 μM. The cryopreserved cells were maintained in culture for 16 hours, placed on plates in the presence of the epitopes, incubated for a further 18 hours, washed and ELISPOT plates were developed for the identification of spot-forming cells/Interferon-γ-producing cells (IFN-γ SFC), which were then counted in an automated counter (Zeiss KS ELISpot/Axioplan 2).

Sequence | IFN-γ spots/10^6 PBMC, Average (AV) [spots/10^6 PBMC] | IFN-γ spots/10^6 PBMC, AV + 3SD [spots/10^6 PBMC] | IFN-γ spots/10^6 PBMC (seronegative individual C#01) [spots/10^6 PBMC] | IFN-γ spots/10^6 PBMC (seronegative individual C#02) [spots/10^6 PBMC] | IFN-γ spots/10^6 PBMC (seronegative individual C#03) [spots/10^6 PBMC] | IFN-γ spots/10^6 PBMC (seronegative individual C#04) [spots/10^6 PBMC] | IFN-γ spots/10^6 PBMC (seronegative individual C#05) [spots/10^6 PBMC] | IFN-γ spots/10^6 PBMC (seronegative individual C#06) [spots/10^6 PBMC] | IFN-γ spots/10^6 PBMC (seronegative individual C#07) [spots/10^6 PBMC] | IFN-γ spots/10^6 PBMC (seronegative individual C#08) [spots/10^6 PBMC]
ALFYKLDVVPID [env 3] | 1.5 | 10 | 5 | 0 | 0 | 7 | 0 | 0 | 0 | 0
DKELYPLASLRSLFG [gag 4] | 3.7 | 17.4 | 0 | 0 | 5 | 12 | 8 | 0 | 0 | 5
EAIIRILQQLLFIHF [vpr 2] | 4.6 | 24.2 | 0 | 12 | 15 | 0 | 0 | 0 | 0 | 10
EELRSLYNTVATLYCVH [gag 1] | 1.7 | 10.0 | 0 | 7 | 0 | 2 | 0 | 0 | 0 | 5
ELLKTVRLIKFLYQSNP [rev 1] | 3 | 12.9 | 5 | 7 | 5 | 7 | 0 | 0 | 0 | 0
GKIILVAVHVASGYI [pol 3] | 0.2 | 2.4 | 0 | 2 | 0 | 0 | 0 | 0 | 0 | 0
KRWIILGLNKIVRMYSPTSI [gag 3] | 3.6 | 20 | 0 | 12 | 5 | 12 | 0 | 0 | 0 | 0
NTSYRLISCNTSVI [env 4] | 5.2 | 24.6 | 0 | 7 | 15 | 2 | 3 | 0 | 0 | 15
QQLLFIHFRIGCRHSRIG [vpr 3] | 1.9 | 12.3 | 0 | 8 | 7 | 0 | 0 | 0 | 0 | 0
SELYLYKVVKIEPLGVAP [env 5] | 0.6 | 5.9 | 0 | 0 | 5 | 0 | 0 | 0 | 0 | 0
SLQYLALVALVAPKK [vif 2] | 3.1 | 19.7 | 0 | 8 | 2 | 0 | 0 | 0 | 0 | 15
